# Data taken from publication PMC10747453, “Perturbations in Osteogenic Cell Fate Following Exposure to Constituents Present in Tobacco: A Combinatorial Study” (Toxics, 2023).
# Entries after “also recorded” stand apart in the source; their conditions may differ. Where a name gives a salt, the structure may show the parent alone. Read-outs that look alike come from different tables or passages of the source.
# Key:
# [1] = tested on: human foreskin fibroblasts (hFF-1); assay: hESTo MTT assay, fibroblast viability; settings: for IC50: Homo sapiens, HFF-1, read-out: IC50 MTT hFF
# Experimental: Human embryonic stem cells of the line H9 (WiCell) were seeded on Matrigel-coated culture plates and cultured in mTeSR1 medium (Stem Cell Technologies, Seattle, WA, USA) at 37 °C with 5% CO2. Approximately every four days, colonies were treated with accutase for 2–4 min at room temperature to dislodge colonies from the plastic and passaged into fresh Matrigel-coated wells. Human foreskin fibroblasts (hFF-1, American Type Culture Collection, Manassas, VA, USA, cat.no. SCRC-1041), were cultured on 0.1% gelatin-coated 6-well plates in Dulbecco’s Modified Eagle Medium (DMEM) with 10% fetal bovine serum, 1% (v/v) non-essential amino acids, 50 U/mL penicillin, and 50 µg/mL streptomycin at 37 °C in a controlled humidified 5% CO2 incubator. Upon 70% confluency, hFFs were passaged at a 1:6 ratio using phosphate-buffered saline (PBS) washes and 2.5% Trypsin/EDTA every two to four days. While in culture, all cells were routinely checked for bacterial, yeast, and microbial contamination using an inverted microscope and tested for mycoplasma using a PCR-based detection kit (abcam, Fremont, CA, USA, ab289834).
# (§1) Cells were cultured with concomitant chemical treatment in a double-blind, vehicle-controlled study. […] 241571), and urethane (Sigma Aldrich, cat. no. U2500) were purchased from the indicated companies. Stock solutions were made in DMEM or dimethylsulfoxide, depending on chemical solubility, sonicated when necessary, sterile filtered (0.1 µm), and stored at −20 °C. For liquids, concentrations were calculated from their density. Final dilutions were made in appropriate cell culture medium upon additional sonication of the stock after thawing. Chemical cell treatment started on day 0 of culture/differentiation and continued through day 20 in both H9 hESCs and hFF cells. Medium, including chemical dilutions, were made fresh and changed every other day. All exposures were performed in biological triplicate, each containing technical quintuplicates.
# (§2) Viability response to constituent exposure was determined by 3-[4,5-dimethylthiazol-2yl]-2,5-diphenylterazolium bromide (MTT) assay. Cells were incubated with MTT (5 mg/mL) at 37 °C for 2 h. Following incubation, the supernatant was removed and replaced with 0.04 mol/L HCl in isopropanol. The plate was placed on a shaker for 15 min to dissolve aggregates. The optical density of the solution was read at 595 nm (iMark microplate reader; BioRad).
# (§3) Half-maximal inhibitory doses of cytotoxicity (IC50) and osteogenic differentiation (ID50) were taken from concentration–response curves generated in GraphPad Prism (9.2., GraphPad Software Inc., San Diego, CA, USA) with the “nonlinear regression” function). A biostatistical prediction model based on linear discriminant functions was employed to classify the test chemical into one out of three embryotoxicity categories (strong, weak, and non-embryotoxic). In double combination analyses, a t-test was performed comparing combination to single constituent ID50. For triple combination analyses, a one-way ANOVA with Dunnett’s multiple comparison test (single constituent vs. combination) using GraphPad Prism was conducted. A p-value below 0.05 was considered significant. Heatmaps for double and triple exposures were generated in GraphPad Prism 9.2. Calcium-to-MTT ratios were calculated in Microsoft Excel and imported to ClustVis to generate a principal-component-analysis-based clustered heatmap.
# [2] = tested on: osteogenically differentiating H9 hESCs; assay: hESTo calcium assay, osteogenic differentiation of hESCs; assay type: cell-based, human; settings: for IC50: Homo sapiens, 480 h, read-out: ID50 Ca2+ hESC (half-maximal inhibitory concentration of differentiation)
# Experimental: Differentiation was induced from hESC cultures through the addition of a control differentiation medium (CDM) composed of DMEM, 15% FBS (Atlanta Biologicals, Flowery Branch, GA, USA), 1% (v/v) non-essential amino acids, 50 U/mL penicillin, 50 µg/mL streptomycin, and 0.1 mM β-mercaptoethanol. Five days after this initial medium change, CDM was supplemented with 1.2 × 10^−7 M 1,25α(OH)2 vitamin D3 (Calbiochem, Burlington, MA, USA), 0.1 mM β-glycerophosphate, and 20.8 µg/mL ascorbic acid.
# as §1
# Quantification of calcium in the extracellular matrix of the cultures was performed using a calcium assay normalized to protein content. First, cells were lysed with radio-immunoprecipitation buffer (1% NP40, 0.5% sodium deoxycholate, 0.1% sodium dodecyl sulfate in PBS) on day 20 of cellular differentiation. The remaining matrix was dissolved with 1 N HCl and collected. Both lysates were assayed with Arsenazo III (Genzyme), and absorbance was measured at 655 nm (iMark microplate reader; Bio-Rad Laboratories, Hercules, CA, USA). Absorbances were compared to a CaCl2 standard, and total calcium content was normalized to the total protein content of the sample determined by a Lowry assay, measured against a bovine serum albumin standard curve. The Lowry assay was read at 750 nm (iMark microplate reader; Bio-Rad Laboratories) after a 15 min micro-shake incubation. Calculation of final normalized calcium content was performed according to a previously published formula [33].
# as §3
# [3] = hESTo MTT assay, hESC viability; settings: human
# Experimental: (§4) Cells were cultured with concomitant chemical treatment in a double-blind, vehicle-controlled study. […] U2500) were purchased from the indicated companies. […] For liquids, concentrations were calculated from their density. Final dilutions were made in appropriate cell culture medium upon additional sonication of the stock after thawing. Chemical cell treatment started on day 0 of culture/differentiation and continued through day 20 in both H9 hESCs and hFF cells. Medium, including chemical dilutions, were made fresh and changed every other day. All exposures were performed in biological triplicate, each containing technical quintuplicates.
# as §2, §3
# [4] = tested on: osteogenically differentiating human embryonic stem cells and fibroblasts; assay: hESTo biostatistical prediction model (embryotoxicity class); settings: for Embryotoxicity classification by the biostatistical model, in words: hESTo, skeletal differentiation
# Excerpt: as §3
# Half-maximal inhibitory concentrations for cell viability (IC50 hESC) and differentiation (ID50 Ca^2+ hESC) were established for penicillin G and all-trans retinoic acid from concentration–response curves. The hESTo then compares these two endpoints to the half-maximal inhibitory concentration for cell viability resulting from exposure of fibroblast cells to the same test compound (IC50 MTT hFF) (Figure 3).
# [5] = in vivo; cited from earlier work
# [6] = human
# Experimental: (C) Table listing IC50 and ID50 values, calculated via GraphPad Prism and expressed as µg/mL, embryotoxicity classes calculated according to Genschow et al. [24], and content per cigarette (cig) or gram tobacco as well as actual and calculated plasma concentrations assuming a plasma volume of 3000 mL. […] ID50 = half-maximal inhibitory concentration of differentiation. IC50 = half-maximal concentration of cytotoxicity. hESC, human embryonic stem cell; hFF, human foreskin fibroblast; ND, not determined from the literature [37, 38, 39, 40, 41, 42, 43, 44, 45, 46, 47, 48, 49].
# H9 hESCs = assay: hESTo MTT assay, hESC viability
# Experimental: as §4, §2, §3
# cultured rat embryos = tested on: cultured rat embryos; design: method as in PMID 8079346; settings: cited from earlier work
# other aquatic species = settings: cited from earlier work
# [7] = H9 hESC, exposure day 0 through day 20, calcium normalized to protein
SMILES,IC50 [1] [µg/mL],"IC50 [2, 7] [µg/mL]",IC50 at 20 days [3] [µg/mL],"Embryotoxicity classification by the biostatistical model, in words [4]",also measured
"CCOC(N)=O [Urethane, urethane]",> 1000,> 1000,> 1000,non-embryotoxic,
"CN1CCC[C@H]1c1cccnc1 [Nicotine, nicotine]",> 1000,633 ± 2350,> 1000,non-embryotoxic,"Effect on H9 hESC differentiation potential / calcification, in words ([2]; all tested concentration ranges): a decrease in calcification was seen in the higher concentrations"
"C=CC=O [Acrolein, acrolein]",,,,strongly developmentally osteotoxic,
CC=O [Acetaldehyde],,,,strongly developmentally osteotoxic,
"CN1C(=O)CC[C@H]1c1cccnc1 [Cotinine, cotinine]",497 ± 139,272 ± 82.8,341 ± 72.9,non-embryotoxic,Approx. plasma concentration [5]: 0.068 to 0.3 µg/mL
"C=CC(N)=O [Acrylamide, acrylamide]",,,,non-embryotoxic,"Effect on H9 hESC differentiation potential / calcification, in words [2]: caused reductions in cell viability as well as calcification but in very high concentration ranges"
"c1ccc2c(c1)cc1ccc3cccc4ccc2c1c34 [Benzo[a]pyrene, benzo[a]pyrene]",1020 ± 653,2.11 ± 0.65,52.9 ± 428,,Calculated plasma concentration [6]: 0.000036 µg/mL
"c1ccc2cc3c(ccc4ccccc43)cc2c1 [Benz[a]anthracene, benz[a]anthracene]",,,,non-embryotoxic,"Effect on hFF cell viability, in words ([1]; tested concentration range up to 1000 µg/mL): did not produce a change in cell viability; ID50 Ca2+ hESC (half-maximal inhibitory concentration of differentiation) [2, 7]: 239.5 µg/mL; IC50 MTT hESC (half-maximal concentration of cytotoxicity) (H9 hESCs; H9 hESC, exposure day 0 through day 20): 337.3 µg/mL"
"Oc1ccccc1O [Catechol, catechol]",9.29 ± 1.71,,0.071 ± 0.023,strongly embryotoxic; also recorded: strongly developmentally osteotoxic,Concentration above which hFF cell viability changed [1]: above 0.882 µg/mL; Half-maximal lethality (cultured rat embryos): 50 to 100 µM; IC50 [2]: 0.258 ± 0.166 µg/mL; hESC differentiation endpoint relative to solvent control ([2]; around 0.882 µg/mL): below 25%; hESC cytotoxicity endpoint relative to solvent control (H9 hESCs; around 0.882 µg/mL): below 25%
"c1ccc2ncccc2c1 [Quinoline, quinoline]",59.4 ± 19.1,2.27 ± 0.76,2.65 ± 0.51,weakly developmentally osteotoxic,Calculated plasma concentration [6]: 0.000045 µg/mL; Median lethal dose (other aquatic species): 11 µg/mL
"O=c1ccc2ccccc2o1 [Coumarin, coumarin]",0.114,0.024 ± 0.009,0.013,strongly developmentally osteotoxic,
"c1ccc2c(c1)-c1cccc3c1c-2cc1ccccc13 [Benzo[b]fluoranthene, benzo[b]fluoranthene]",110 ± 76.1,25.8 ± 7.24,61 ± 14.8,neither chemical classified as developmentally osteotoxic,
"CN1CCC(c2cccnc2)C1 (stereo not drawn) [Isonicotine, isonicotine]",,,,neither chemical classified as developmentally osteotoxic,
"CC1=C(/C=C/C(C)=C/C=C/C(C)=C/C(=O)O)C(C)(C)CCC1 [All-trans retinoic acid, all-trans retinoic acid, reference compound]",0.061,,0.036,,
"CC1(C)S[C@@H]2[C@H](NC(=O)Cc3ccccc3)C(=O)N2[C@H]1C(=O)O [Penicillin G, penicillin G sodium salt, reference compound]",> 1000,,> 1000,,"Embryotoxicity class ([4]; biostatistical model of Genschow et al. from ID50 hESC, IC50 hESC, IC50 hFF): I"
